The values that follow are results of earlier work, collected in article PMC10385579, “Design, Synthesis, and Biological Evaluation of Indole-2-carboxamides as Potential Multi-Target Antiproliferative Agents” (Pharmaceuticals, 2023).

For series [1], the system named is cancer cell lines. Further details: method as in PMID 32920363, PMID 29407956, PMID 36770936, PMID 36015154, PMID 35078049. As to conditions: four cancer cell lines; read-out: GI50 vs four cancer cell lines; cited from earlier work.
Series [2] concerns BRAF^V600E. Set-up: method as in PMID 32920363, PMID 29407956, PMID 36770936, PMID 36015154, PMID 35078049. As to conditions: cited from earlier work.
In series [3] the test system is EGFR^T790M. Set-up: method as in PMID 32920363, PMID 29407956, PMID 36770936, PMID 36015154, PMID 35078049. As to conditions: cited from earlier work.
Series [4] deals with mutant EGFR vs wild-type EGFR. As to conditions: cited from earlier work.

For `CCOC(=O)c1[nH]c2ccc(Cl)cc2c1CNCCc1cccc(N2CCCCC2)c1` [Compound 11], the GI50 in series [1] was 29 nM. Besides, the concentration for half-maximal inhibition (IC50) in series [2] is 35 nM; in series [3], 8.6 nM.

For the molecule `C=CC(=O)Nc1cc(Nc2nccc(-c3cn(C)c4ccccc34)n2)c(OC)cc1N(C)CCN(C)C` [Osimertinib], the “selectivity for the mutant protein over wild-type EGFR” value in series [4] was “approximately 200 times”.

A word on the GI50: it is the concentration at which growth is held to half of that of the control. As a reminder, the IC50 is the concentration that inhibits the measured activity by half.
